Assay results: patent publication US5512550A, “Method for inhibiting angiogenesis with modified platelet factor-4 and cleaved platelet factor-4” (Eli Lilly and Company, priority 1995, dated 1996)
Values belong to the molecule of their own block, whether it stands above or below them. Positions of bridges follow the written chain, without caps; N, C: chain ends. Chains are numbered I, II in the order given. No end group written: not given here.

Assays:
[1] = system: primary retinal capillary endothelial cells or bovine heart endothelial cells; assay: Endothelial cell proliferation inhibition assay; format: cell-based; conditions: for IC50, inhibition of endothelial cell proliferation: endothelial cells with 20 ng/ml fibroblast growth factor, grown four days, cell count, average of 4 wells (FIG. 1); for IC50: same experiment, IC50 restated in nM; for potency of endothelial cell proliferation inhibition compared with PF-4: under identical conditions as PF-4
Method: Primary retinal capillary endothelial cell cultures were prepared in substantial accordance with the procedure described in Buzney et al., Retinal Vascular Endothelial Cells and Pericytes: Differential Growth Characteristics in vitro, Invest. Opthalmol. Visual Sci. 24: 470-483 (1983) and separated from contaminating cells as described in Voyta et al., Identification and Isolation of Endothelial Cells Based on their Increased Uptake of Acetylated-low density Lipoprotein, J. Cell Biol, 99: 2034-2040 (1981).
Alternatively, bovine heart endothelial cells were obtained (American Type Culture Collection; Rockville Md. 20852) for use in the assay. Irrespective of source, the endothelial cells were seeded into 24 well tissue culture plates at a cell density of 10,000 cells/well in Dulbecco's modified Eagle Medium (GIBCO; Grand Island, N.Y.) supplemented with 5% bovine serum albumin, 1% penicillin-streptomycin, 1% L-glutamine, and 20 ng/ml fibroblast growth factor. Immediately after seeding the cells, various amounts of PF-4 (Sigma Chemical Co.; St. Louis, Mo. 63178), MPF-4 , or CPF-4 (isolated as describe in the above examples) were added to individual growth wells. MPF-4 and CPF-4 were tested at final concentrations ranging from 0.001 to 1 μg/ml. For comparison, native PF-4 was tested over a range of 0.001 to 3 μg/ml, and supplemented medium alone served as the negative control. The endothelial cell cultures were allowed to grow for four days at 37° C., 5% CO2 in a humidified tissue culture incubator. The cultures were then harvested individually by trypsinization and counted using a Zm-Coulter Counter (Coulter Electronics. Inc.; Opa Locka Fla. 33054).
The results were plotted in FIG. 1, and each point on the graph represented the average of 4 data points; ie one growth well per data point.

[2] = Heparin binding (heparin affinity chromatography)
Text: The eluted proteins are then contacted with a heparin affinity resin. The ordinarily skilled artisan will readily realize that this step is best achieved in a column chromatography mode. Heparin affinity columns are commercially available from some of the same vendors mentioned above. In this step, the molecules of interest, both MPF-4 or CPF-4, bind to the heparin column and are eluted using an increasing linear salt gradient. The preferred salt is NaCl, and the portion of the gradient that is preferably collected is the 0.1-2.0M portion. The more highly preferred portion of the gradient to collect is the 0.7-2.0M portion.
The C4-pool was further fractionated by heparin affinity chromatography on a Econo-pac™ 5 ml heparin-sepharose cartridge (Biorad, Richmond, Calif. 94804). The bound proteins were eluted by a linear gradient of 0 to 2.0M NaCl in phosphate buffer saline (PBS) at a flow rate of 2.0 ml/min. The proteins that eluted from the column were pooled into three fractions: (1) non-heparin binding (flow through), (2) low-affinity heparin binding (0 to 0.7M NACl), and (3) high-affinity heparin binding (0.7M to 2.0M NACl) fractions.

heparin binding [2]: bind heparin
Molecule: MPF-4: N-terminally processed form of human platelet factor-4, 54 C-terminal residues beginning with Ser-17, SEQ ID NO: 1 (SQVRPRHITSLEVIKAGPHCPTAQLIATLKNGRKICLDLQAPLYKKIIKKLLES)
IC50, inhibition of endothelial cell proliferation [1]: 0.03 to 0.05 µg/mL
IC50 [1]: ~7 nM
potency of endothelial cell proliferation inhibition compared with PF-4 [1]: more potent inhibitors of endothelial cell proliferation

Molecule: PF-4: Native platelet factor-4 (Sigma Chemical Co.), tested for comparison [reference compound]
IC50, inhibition of endothelial cell proliferation [1]: 0.8 to 1 µg/mL
IC50 [1]: ~130 nM

heparin binding [2]: bind heparin
B1: CPF-4: Proteolytically cleaved, non-reduced PF-4: 16-residue chain (SEQ ID NO: 2) disulfide bonded to 54-residue chain (SEQ ID NO: 1) (protein)
chain 1: EAEEDGDLQCLCVKTT
chain 2: SQVRPRHITSLEVIKAGPHCPTAQLIATLKNGRKICLDLQAPLYKKIIKKLLES
modifications: disulfide I:10-II:20, I:12-II:36; not fully specified
IC50, inhibition of endothelial cell proliferation [1]: approximately 150 ng/ml
IC50 [1]: ~20 nM
potency of endothelial cell proliferation inhibition compared with PF-4 [1]: more potent inhibitors of endothelial cell proliferation
